Experimental findings from PubChem BioAssay AID330 (DTP/NCI, 2004) are described below.

This assay relates to P388 leukemia ip, CD2F1 mice, survival T/C. As to the kind of experiment: NCI In Vivo Anticancer Drug Screen. Data for tumor model P388 Leukemia (intraperitoneal) in CD2F1 (CDF1) mice. The note with it: endpoint: median survival time, higher = longer survival. The method in brief: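 Mice carrying the transplanted tumor received test compound or vehicle. Survival was recorded in each group, and the value is the treated-group measurement divided by that of the vehicle-treated control group.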

Where [1] appears, read: dose: 12.5 mg/kg/injection, schedule: Q01DX009 (ip), vehicle: Klucel (hydroxypropylcellulose) (HPC).
Where [2] appears, read: dose: 25.0 mg/kg/injection, schedule: Q01DX009 (ip), vehicle: Klucel (hydroxypropylcellulose) (HPC).
Setting [3] is: dose: 50.0 mg/kg/injection, schedule: Q01DX009 (ip), vehicle: Klucel (hydroxypropylcellulose) (HPC).
Setting [4] is: dose: 60.0 mg/kg/injection, schedule: Q01DX005 (ip), vehicle: saline with Tween-80.
[5] abbreviates: dose: 120.0 mg/kg/injection, schedule: Q01DX005 (ip), vehicle: saline with Tween-80.
Setting [6] is: dose: 240.0 mg/kg/injection, schedule: Q01DX005 (ip), vehicle: saline with Tween-80.
Setting [7] is: dose: 200.0 mg/kg/injection, schedule: Q01DX009 (ip), vehicle: saline.
Where [8] appears, read: dose: 100.0 mg/kg/injection, schedule: Q01DX009 (ip), vehicle: Klucel (hydroxypropylcellulose) (HPC).
[9] abbreviates: dose: 200.0 mg/kg/injection, schedule: Q01DX009 (ip), vehicle: Klucel (hydroxypropylcellulose) (HPC).

Molecules are shown by their SMILES. “And” between values parts separate entries of the source, which are not always exact repeats. Identical values can stand only once. Toxic doses and inconclusive results are not listed.

Take `CC(C)(C)OC(=O)C(C(=O)OC(C)(C)C)=C1C(=O)OCC1(C)C`: the T/C runs as follows: (dose: 100.0 mg/kg/injection, schedule: Q04DX003 (ip), vehicle: saline) 95 % of control; (dose: 200.0 mg/kg/injection, schedule: Q04DX003 (ip), vehicle: saline) 103 % of control; (dose: 400.0 mg/kg/injection, schedule: Q04DX003 (ip), vehicle: saline) 98 % of control.

For the compound `Cc1ncc([N+](=O)[O-])n1CCOc1c(Cl)cc(Cl)cc1CN(C)C1CCCCC1`, the T/C is, setting by setting: (dose: 3.12 mg/kg/injection, schedule: Q01DX005 (ip), vehicle: Klucel (hydroxypropylcellulose) (HPC)) 100 % of control; (dose: 6.25 mg/kg/injection, schedule: Q01DX005 (ip), vehicle: Klucel (hydroxypropylcellulose) (HPC)) 98 % of control; (dose: 12.5 mg/kg/injection, schedule: Q01DX005 (ip), vehicle: Klucel (hydroxypropylcellulose) (HPC)) 105 % of control.

As for `CC(C)[C@]12O[C@H]1[C@@H]1O[C@]13[C@]1(O[C@H]1C[C@H]1C4=C(C(=O)OC4)[C@@H](O)C[C@@]13C)[C@@H]2O`, the T/C is 100 % of control and 101 % of control and 119 % of control (dose: 0.03 mg/kg/injection, schedule: Q01DX009 (ip), vehicle: saline + alcohol); 117 % of control (dose: 0.05 mg/kg/injection, schedule: Q01DX009 (ip), vehicle: saline + alcohol); 110 % of control (dose: 0.06 mg/kg/injection, schedule: Q01DX005 (ip), vehicle: saline + alcohol); 107 % of control (dose: 0.06 mg/kg/injection, schedule: Q01DX005 (iv), vehicle: saline + alcohol); 117 % of control (dose: 0.06 mg/kg/injection, schedule: Q01DX009 (ip), vehicle: saline + alcohol); 124 % of control (dose: 0.1 mg/kg/injection, schedule: Q01DX009 (ip), vehicle: saline + alcohol). For the same compound, the T/C (dose: 0.13 mg/kg/injection, schedule: Q01DX005 (ip), vehicle: saline + alcohol) is 122 % of control; the T/C (dose: 0.13 mg/kg/injection, schedule: Q01DX005 (iv), vehicle: saline + alcohol) was 108 % of control; the T/C (dose: 0.25 mg/kg/injection, schedule: Q01DX005 (iv), vehicle: saline + alcohol) is 108 % of control; the T/C (dose: 0.25 mg/kg/injection, schedule: Q01DX009 (ip), vehicle: saline + alcohol) was 157 % of control and 158 % of control; the T/C (dose: 0.5 mg/kg/injection, schedule: Q01DX005 (iv), vehicle: saline + alcohol) is 116 % of control.

Consider `CC1=C(C)C(=O)O[C@@H]([C@](C)(O)[C@]2(O)CC[C@@]3(O)[C@@H]4C[C@H]5O[C@]56CC=CC(=O)[C@]6(C)[C@H]4CC[C@]23C)C1`, for which the T/C is 109 % of control and 110 % of control under setting [1]; 122 % of control (dose: 12.5 mg/kg/injection, schedule: Q04DX003 (ip), vehicle: Klucel (hydroxypropylcellulose) (HPC)); 107 % of control and 124 % of control under setting [2]; 100 % of control under setting [3]; 124 % of control (dose: 50.0 mg/kg/injection, schedule: Q04DX003 (ip), vehicle: Klucel (hydroxypropylcellulose) (HPC)).

On to `O=C1OCN2C(=O)CCC12` (centres undefined), for which the T/C is 109 % of control (dose: 60.0 mg/kg/injection, schedule: Q01DX005 (ip), vehicle: saline); 97 % of control (dose: 120.0 mg/kg/injection, schedule: Q01DX005 (ip), vehicle: saline); 86 % of control (dose: 240.0 mg/kg/injection, schedule: Q01DX005 (ip), vehicle: saline).

With `CN1C(=S)C2(C1c1ccccc1)C(C)(C)CCCC2(C)C` (centres undefined), the T/C reads like this: (dose: 100.0 mg/kg/injection, schedule: Q01DX001 (ip), vehicle: saline with Tween-80) 92 % of control; (dose: 200.0 mg/kg/injection, schedule: Q01DX001 (ip), vehicle: saline with Tween-80) 92 % of control; (dose: 400.0 mg/kg/injection, schedule: Q01DX001 (ip), vehicle: saline with Tween-80) 87 % of control.

With `C/C(=N/N(C)C)c1ccc(Cl)cc1`, the T/C runs as follows: (dose: 100.0 mg/kg/injection, schedule: Q01DX001 (ip), vehicle: saline) 100 % of control; (dose: 200.0 mg/kg/injection, schedule: Q01DX001 (ip), vehicle: Klucel (hydroxypropylcellulose) (HPC)) 108 % of control; (dose: 200.0 mg/kg/injection, schedule: Q01DX001 (ip), vehicle: saline) 108 % of control; (dose: 400.0 mg/kg/injection, schedule: Q01DX001 (ip), vehicle: Klucel (hydroxypropylcellulose) (HPC)) 106 % of control; (dose: 400.0 mg/kg/injection, schedule: Q01DX001 (ip), vehicle: saline) 106 % of control.

Take `COC(=O)C(CSCSCc1ccccc1)NC(=O)C(CSCc1ccccc1)NC(=O)CCNC(=O)OCc1ccccc1` (centres undefined): the T/C is, setting by setting: (dose: 3.12 mg/kg/injection, schedule: Q04DX003 (ip), vehicle: saline) 114 % of control; (dose: 6.25 mg/kg/injection, schedule: Q04DX003 (ip), vehicle: saline) 100 % of control; (dose: 12.5 mg/kg/injection, schedule: Q04DX003 (ip), vehicle: saline) 98 % of control; (dose: 25.0 mg/kg/injection, schedule: Q04DX003 (ip), vehicle: saline) 112 % of control.

As to `CC(C)B1N(C(C)(C)C)B(C(C)C)N(C(C)(C)C)B(C(C)C)N1C(C)(C)C`, the T/C is, setting by setting: under setting [4], 93 % of control; under setting [5], 101 % of control; under setting [6], 104 % of control.

In the case of `O=c1ssc2ncccc12`, the T/C by setting is: under setting [4], 104 % of control; under setting [5], 103 % of control; under setting [6], 117 % of control.

`CC1=CCCC(C(C)O)O1` (centres undefined): the T/C (dose: 6.25 mg/kg/injection, schedule: Q01DX009 (ip), vehicle: saline) is 107 % of control; the T/C (dose: 12.5 mg/kg/injection, schedule: Q01DX009 (ip), vehicle: saline) is 104 % of control; the T/C (dose: 25.0 mg/kg/injection, schedule: Q01DX009 (ip), vehicle: saline) is 105 % of control; the T/C under setting [7] is 87 % of control.

Regarding `Cn1c2nc3ccccc3c-2nc2ccccc21`, the T/C was 100 % of control (dose: 1.56 mg/kg/injection, schedule: Q01DX009 (ip), vehicle: water); 92 % of control (dose: 3.13 mg/kg/injection, schedule: Q01DX009 (ip), vehicle: water); 88 % of control (dose: 6.25 mg/kg/injection, schedule: Q01DX009 (ip), vehicle: water); 92 % of control under setting [1]; 99 % of control under setting [2]; 109 % of control under setting [3]. In addition, the T/C runs as follows: under setting [8], 106 % of control; under setting [9], 107 % of control.

For the compound `COc1ccccc1-n1c(SC)nccc1=O`, the T/C reads like this: (dose: 100.0 mg/kg/injection, schedule: Q04DX002 (ip), vehicle: Klucel (hydroxypropylcellulose) (HPC)) 100 % of control; (dose: 200.0 mg/kg/injection, schedule: Q04DX002 (ip), vehicle: Klucel (hydroxypropylcellulose) (HPC)) 100 % of control; (dose: 400.0 mg/kg/injection, schedule: Q04DX002 (ip), vehicle: Klucel (hydroxypropylcellulose) (HPC)) 94 % of control.

In the case of `O=C1/C(=C/c2ccccn2)CCc2ccccc21`, the T/C (dose: 50.0 mg/kg/injection, schedule: Q01DX009 (ip), vehicle: saline) was 102 % of control; the T/C (dose: 100.0 mg/kg/injection, schedule: Q01DX009 (ip), vehicle: saline) was 101 % of control; the T/C under setting [7] was 99 % of control.

Turning to `c1cc[n+]2cc3cc4c(cc3cc2c1)OCO4`, the T/C (dose: 3.13 mg/kg/injection, schedule: Q01DX009 (ip), vehicle: distilled water + Tween-80) was 103 % of control and 107 % of control; the T/C (dose: 6.25 mg/kg/injection, schedule: Q01DX009 (ip), vehicle: distilled water + Tween-80) is 119 % of control and 123 % of control; the T/C (dose: 25.0 mg/kg/injection, schedule: Q01DX009 (ip), vehicle: distilled water + Tween-80) was 120 % of control and 94 % of control.

For `COc1ccc(C(c2cc3c(cc2O)OCO3)n2ccnc2)cc1` (centres undefined), the T/C is, setting by setting: under setting [4], 99 % of control; under setting [5], 99 % of control; under setting [6], 96 % of control.

For `Cc1c(C#N)c2nc(N)c3ccccc3n2c1C`, the T/C was 101 % of control (dose: 50.0 mg/kg/injection, schedule: Q01DX005 (ip), vehicle: Klucel (hydroxypropylcellulose) (HPC)); 106 % of control (dose: 100.0 mg/kg/injection, schedule: Q01DX005 (ip), vehicle: Klucel (hydroxypropylcellulose) (HPC)); 106 % of control (dose: 200.0 mg/kg/injection, schedule: Q01DX005 (ip), vehicle: Klucel (hydroxypropylcellulose) (HPC)).

For `COC1/C=C/OC2(C)Oc3c(C)c(O)c4c(c3C2=O)C(N)=C(Nc2ccccc2)C(=NC(=O)C(C)=CC=CC(C)C(O)C(C)C(O)C(C)C(OC(C)=O)C1C)C4=O` (centres undefined), the T/C was 97 % of control under setting [2], 94 % of control under setting [3], 98 % of control under setting [8] and 86 % of control under setting [9].
